Here are results for seven molecules from US20250367283A1, “MEVALONATE PATHWAY INHIBITOR AS HIGHLY-EFFICIENT VACCINE ADJUVANT” (Tsinghua University, priority 2015, published 2025).

Read-outs that look alike come from different tables or passages of the source.

In test [1] the test system is anti-OVA IgG antibody affinity. Description: Antibody affinity by sodium thiocyanate disruption. The note with it: for antibody affinity vs PBS control: IC50 of sodium thiocyanate, after boost. The class given is in vivo, mice. The text has this:
Antibody affinity refers to the strength of an antibody to bind to the epitope of an antigen, which is a very important indicator when evaluating an antibody. It is due to gene mutations of antibody-forming cells themselves and selective activation of antigens for B cell clones. The functional state of the body is the result of long-term evolution and continuous adaptation to the external environment, which is of great significance to the defense of the body and the maintenance of autoimmune monitoring. In an in vitro test, the affinity of an antibody is determined by disrupting the antigen-antibody binding by sodium thiocyanate. The determination of antibody affinity is based on the fact that sodium thiocyanate can disrupt the binding of antigen and antibody, and the stronger the affinity of the antibody, the higher the concentration of sodium thiocyanate is required to dissociate the antigen and antibody. From another aspect if the affinity of the antibody is stronger, the effect of an adjuvant is better.
The OVA protein was diluted to a concentration of 2 μg/ml with a carbonate solution of pH 9.6, coated in a 96-well ELISA plate at 50 μl per well, and left at 4° C. overnight. The ELISA plate was washed five times with PBS containing 0.05% Tween 20, blocked with 1% BSA solution at 200 μl per well, and incubated at room temperature for 2 h. The ELISA plate was washed five times with PBST and the serum with certain dilution was added. Specifically, for the dilutions, the PBS group was not diluted, the simvastatin group was diluted 16-fold, the TH-Z80 group was diluted 16-fold, the TH-Z93 group was diluted 32-fold, the TH-Z145 group was diluted 16-fold, the imiquimod group was diluted 8-fold, the PEI group was diluted 8-fold, the aluminum adjuvant group was diluted 8-fold, the MF59 group was diluted 16-fold, the incomplete Freund's adjuvant group was diluted 32-fold, and the complete Freund's adjuvant group was diluted 64-fold. Before adding sodium thiocyanate, the amount of anti-OVA IgG type antibody in the diluted serum was the same, 50 μl per well, and incubated for 2 h at room temperature. After washing the ELISA plate with PBST for five times, 10 mM, 9.5 mM, 9 mM, 8.5 mM, 8 mM, 7.5 mM, 7 mM, 6.5 mM,6 mM, 5.5 mM, 5 mM, 4.5 mM, 4 mM, 3.5 mM, 3 mM, 2.5 mM, 2 mM, 1.5 mM, and 0.5 mM sodium thiocyanate were added to each well at 50 μl per well, and incubated for 30 min at room temperature. After washing the ELISA plate for five times with PBST, HRP-labeled goat-anti-mouse antibody was added to each well at 50 μl per well and incubated for 45 min at room temperature. The ELISA plate was washed for five times with PBST, and a color developing solution of sodium citrate OPD was added. After 10 min of color development in the dark, sulfuric acid was added to terminate the reaction. According to the readings of ELIASA, the Prism software was used to calculate the IC50 of sodium thiocyanate. The higher the IC50 value, the stronger the antibody affinity produced by the immunization.
In an in vitro test, the affinity of the antibody was determined by disrupting the binding of the antigen to the antibody by NaSCN. The procedure was as follows: a 96-well ELISA plate was coated with 2 μg/ml OVA, and blocked with 2% BSA. […] Absorbance values at OD 490 nm were read. The IC50 values of NaSCN inhibition were calculated. […]

The subject of test [2] is B lymphocytes, T lymphocytes, macrophages and dendritic cells in lymph nodes. Description: Recruitment of cells in lymph nodes after immunization. It is filed as in vivo, mice. The note with it: 24 hours after subcutaneous immunization, vs Ctrl and PBS. How it is done: Method: Following an similar procedure of example 1, OVA was used as antigen and three inhibitor compounds, simvastatin, TH-Z80, and TH-Z145 were added as adjuvants, respectively. The OVA antigen and adjuvant were mixed at 1:1 and used for immunizing mice by subcutaneous injection. 24 hours after immunization, inguinal lymph nodes ipsilateral to the immunization were removed and separated through a 100 mesh screen into single-cell suspension. Flow cytometry was used to determine changes of the proportions and numbers of B lymphocytes, T lymphocytes, macrophages and dendritic cells in lymph nodes. The marker of the B lymphocyte was B220, the marker of the T lymphocyte was CD3, the markers of the macrophage were CD11b and F4/80, and the marker of the dendritic cell was CD11c.

Test [3] concerns the target humanized farnesyl pyrophosphate synthase (HsFPPS) (Homo sapiens (Human), UniProt P14324). Description: In vitro HsFPPS enzyme activity assay. It is filed as biochemical. The procedure: The measurement method is briefly described as follows: the expression of HsFPPS with 6 consecutive His at the N-terminus was induced in vitro, collected, and purified by Ni column. An in vitro HsFPPS enzyme activity assay was performed in a 96-well plate with 200 μl of solution per well. The buffer of the system was 25 mM HEPES, 2.5 mM MgCl2, pH 7.4. Using DMAPP and IPP as reaction substrates, the change of the UV value at a wavelength of 360 nm was monitored in real time in a phosphate lyase system. The ORIGIN 8.0 software was used to plot and fit. The IC50 values for the inhibition of FPPS by the TH-Z80 series of compounds were shown in the following table, in micromoles per liter (μM).
HsFPPs with 6 consecutive His at the N-terminus was induced to express in vitro, collected, and purified by Ni column. In vitro HsFPPs enzymatic activity assay was performed in a 96-well plate at 200 μl of solution per well. The buffer of the system was 25 mM HEPES, 2.5 mM MgCl2, pH 7.4. Using DMAPP and IPP as reaction substrates, the changes of UV at 360 nm were monitored in real-time in phosphate lyase system. ORIGIN 8.0 software was used to plot and fit.

For test [4], the system named is Plasmodium falciparum 3D7. Briefly: Test of plasmodium activity (SYBR-GREEN1). It is filed as cell-based. Conditions: infected erythrocytes, 72 hours; read-out: Malaria (IC50/μM). How it is done: Plasmodium falciparum 3D7 was cultured with […] medium mixed with 10% human O-type blood serum and 25 mM HEPES. The cultivation process was maintained in a carbon dioxide incubator under 5% carbon dioxide. In vitro drug testing experiments were performed on a 96-well plate. The test drug was dissolved in PBS and pre-diluted with complete medium. Infected erythrocytes were cultured in triplicate for 72 hours in 3-fold serial dilutions of drug. Then an equal amount of SYBR-GREEN1 was added to each well. The detection was then performed at 485 nm for excitation light and 538 nm for emitted light. […] ORIGIN 8.0 software was used to plot and fit.

The mark [5] stands for this setting: Example 15 table, read-out: HsFPPS (IC50/μM).
Where [6] appears, read: TH-Z80 series, DMAPP and IPP substrates, pH 7.4, read-out: IC50 for inhibition of FPPS.

Chain of humanized farnesyl pyrophosphate synthase (HsFPPS) (P14324 whole entry, looked up): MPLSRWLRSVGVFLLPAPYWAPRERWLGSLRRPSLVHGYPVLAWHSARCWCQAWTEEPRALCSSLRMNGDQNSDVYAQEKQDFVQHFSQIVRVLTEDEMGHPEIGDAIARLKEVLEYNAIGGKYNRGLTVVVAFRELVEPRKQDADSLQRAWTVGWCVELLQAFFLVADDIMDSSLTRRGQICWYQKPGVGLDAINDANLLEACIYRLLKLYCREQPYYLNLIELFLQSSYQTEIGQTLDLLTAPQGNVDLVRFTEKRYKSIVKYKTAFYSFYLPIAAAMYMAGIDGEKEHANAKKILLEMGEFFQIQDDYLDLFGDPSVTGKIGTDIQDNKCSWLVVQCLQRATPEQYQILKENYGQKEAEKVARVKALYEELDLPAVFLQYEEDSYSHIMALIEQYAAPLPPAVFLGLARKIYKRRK

On to `CCC(C)(C)C(=O)O[C@H]1C[C@@H](C)C=C2C=C[C@H](C)[C@H](CC[C@@H]3C[C@@H](O)CC(=O)O3)[C@H]21` [simvastatin, reference compound], for which the “antibody affinity vs PBS control” value in test [1] is “significantly high titers and antibody affinities”. For the same molecule, the “proportions and numbers of B lymphocytes, T lymphocytes, macrophages and dendritic cells in lymph nodes” value (“proportions and numbers of B lymphocytes” below) in test [2] is “significantly increased”.
Regarding `CCCCCCCCOc1ccc2c(c1)ncn2CC(O)(P(=O)(O)O)P(=O)(O)O` [TH-Z81], the IC50 in test [3] (setting [5]) was 0.48 µM; in test [3] (setting [6]), 0.48 µM; in test [4] it was 1.95 µM.
`CCCCCCCCCOc1ccc2c(c1)ncn2CC(O)(P(=O)(O)O)P(=O)(O)O` [TH-Z153]: the IC50 was 4.9 µM in test [3] (setting [5]), 4.9 µM in test [3] (setting [6]) and 1.28 µM in test [4].
Regarding `CCCCCCOc1ccc2c(c1)ncn2CC(O)(P(=O)(O)O)P(=O)(O)O` [TH-Z80], the IC50 in test [3] (setting [5]) is 0.11 µM; in test [3] (setting [6]), 0.11 µM; in test [4], 1.76 µM. Further, in test [1], the “antibody affinity vs PBS control” value was “significantly high titers and antibody affinities”. Also, the “antibody affinity compared to PBS” value in test [1] (NaSCN IC50, 7 days after boosting) is “significantly increased the affinity”. For the same molecule, the “proportions and numbers of B lymphocytes” value in test [2] was “significantly increased”.
Consider “(2-(3-(octyloxy)phenyl)ethane-1,1-diyl)bisphosphonic acid [TH-Z145]”, for which, in test [1], the “antibody affinity vs PBS control” value was “significantly high titers and antibody affinities”. Besides, the “proportions and numbers of B lymphocytes” value in test [2] is “significantly increased”.
`CCCCCCOc1ccnc(NC(P(=O)(O)O)P(=O)(O)O)c1` [TH-Z93, (((4-(hexyloxy)pyridin-2-yl)amino)methylene)bisphosphonic acid]: in test [3] (o-aminopyridine bisphosphonic acid compounds, read-out: IC50 (inhibition of FPPS)), the IC50 stood at 0.1 µM. In test [1], the “antibody affinity vs PBS control” value was “significantly high titers and antibody affinities”.
Regarding `CCCCCCCOc1ccc2c(c1)ncn2CC(O)(P(=O)(O)O)P(=O)(O)O` [TH-Z152], the IC50 in test [3] (setting [5]) amounted to 0.14 µM; in test [3] (setting [6]), 0.14 µM; in test [4] it was 1.21 µM.
